Data as given in article PMC11855478, “Bicyclic N,S-Acetals Containing Fused Cysteine-Amide System as New Heterocyclic Class Targeting Human Farnesyltransferase (FTase-h)” (International Journal of Molecular Sciences, 2025).

Columns and labels:
Format in all cases: cell-based, human
HCC-2998 (Colon Cancer) = assay: NCI one dose, HCC-2998; conditions: HCC-2998, 1.00E-5 Molar one dose
Description: (§1) 3.4. Cell Proliferation Assay
(§2) Selected compounds were tested on a panel of 60 human cancer cell lines at the National Cancer Institute (NCI), Germantown, MD, USA. The cytotoxicity studies were conducted using a 48 h exposure protocol using the sulfo-rhodamine B assay.

[1] = tested on: NCI-H322M (Non-Small Cell Lung Cancer); assay: NCI one dose, NCI-H322M; conditions: 1.00E-5 Molar one dose
Description: as §1, §2

OVCAR-4 (Ovarian Cancer) = assay: NCI one dose, OVCAR-4; conditions: OVCAR-4, 1.00E-5 Molar one dose
Description: as §1, §2

U251 (CNS Cancer) = assay: NCI one dose, U251; conditions: U251, 1.00E-5 Molar one dose
Description: as §1, §2

A498 (Renal Cancer) = assay: NCI one dose, A498; conditions: A498, 1.00E-5 Molar one dose
Description: as §1, §2

HS 578T (Breast Cancer) = assay: NCI one dose, HS 578T; conditions: 1.00E-5 Molar one dose
Description: as §1, §2

LOX IMVI (Melanoma) = assay: NCI one dose, LOX IMVI; conditions: 1.00E-5 Molar one dose
Description: as §1, §2

DU-145 (Prostate Cancer) = assay: NCI one dose, DU-145; conditions: DU-145, 1.00E-5 Molar one dose
Description: as §1, §2

CAKI-1 (Renal Cancer) = assay: NCI one dose, CAKI-1; conditions: CAKI-1, 1.00E-5 Molar one dose
Description: as §1, §2

[2] = tested on: A549/ATCC (Non-Small Cell Lung Cancer); assay: NCI one dose, A549/ATCC; conditions: 1.00E-5 Molar one dose
Description: as §1, §2

RPMI-8226 (Leukemia) = assay: NCI one dose, RPMI-8226; conditions: RPMI-8226, 1.00E-5 Molar one dose
Description: as §1, §2

K-562 leukaemia cells = assay: NCI one dose, K-562; conditions: K-562, 1.00E-5 Molar one dose
Description: as §1, §2

HCT-116 (Colon Cancer) = assay: NCI one dose, HCT-116; conditions: HCT-116, 1.00E-5 Molar one dose
Description: as §1, §2

786-0 (Renal Cancer) = assay: NCI one dose, 786-0; conditions: 786-0, 1.00E-5 Molar one dose
Description: as §1, §2

[3] = tested on: NCI-H23 (Non-Small Cell Lung Cancer); assay: NCI one dose, NCI-H23; conditions: NCI-H23, 1.00E-5 Molar one dose
Description: as §1, §2

SK-MEL-2 (Melanoma) = assay: NCI one dose, SK-MEL-2; conditions: SK-MEL-2, 1.00E-5 Molar one dose
Description: as §1, §2

CCRF-CEM (Leukemia) = assay: NCI one dose, CCRF-CEM; conditions: 1.00E-5 Molar one dose
Description: as §1, §2

SF-268 (CNS Cancer) = assay: NCI one dose, SF-268; conditions: SF-268, 1.00E-5 Molar one dose
Description: as §1, §2

[4] = tested on: NCI/ADR-RES (Ovarian Cancer); assay: NCI one dose, NCI/ADR-RES; conditions: 1.00E-5 Molar one dose
Description: as §1, §2

IGROV1 (Ovarian Cancer) = assay: NCI one dose, IGROV1; conditions: IGROV1, 1.00E-5 Molar one dose
Description: as §1, §2

PC-3 (Prostate Cancer) = assay: NCI one dose, PC-3; conditions: PC-3, 1.00E-5 Molar one dose
Description: as §1, §2

[5] = tested on: EKVX (Non-Small Cell Lung Cancer); assay: NCI one dose, EKVX; conditions: 1.00E-5 Molar one dose
Description: as §1, §2

[6] = tested on: HOP-92 (Non-Small Cell Lung Cancer); assay: NCI one dose, HOP-92; conditions: HOP-92, 1.00E-5 Molar one dose
Description: as §1, §2

M14 (Melanoma) = assay: NCI one dose, M14; conditions: M14, 1.00E-5 Molar one dose
Description: as §1, §2

MDA-MB-435 (Melanoma) = assay: NCI one dose, MDA-MB-435; conditions: MDA-MB-435, 1.00E-5 Molar one dose
Description: as §1, §2

KM12 (Colon Cancer) = assay: NCI one dose, KM12; conditions: KM12, 1.00E-5 Molar one dose
Description: as §1, §2

SF-295 (CNS Cancer) = assay: NCI one dose, SF-295; conditions: SF-295, 1.00E-5 Molar one dose
Description: as §1, §2

UO-31 renal cancer cells = assay: NCI one dose, UO-31; conditions: UO-31, 1.00E-5 Molar one dose
Description: as §1, §2

SW-620 (Colon Cancer) = assay: NCI one dose, SW-620; conditions: SW-620, 1.00E-5 Molar one dose
Description: as §1, §2

OVCAR-8 (Ovarian Cancer) = assay: NCI one dose, OVCAR-8; conditions: OVCAR-8, 1.00E-5 Molar one dose
Description: as §1, §2

SK-MEL-28 (Melanoma) = assay: NCI one dose, SK-MEL-28; conditions: SK-MEL-28, 1.00E-5 Molar one dose
Description: as §1, §2

[7] = tested on: MDA-MB-231/ATCC (Breast Cancer); assay: NCI one dose, MDA-MB-231/ATCC; conditions: 1.00E-5 Molar one dose
Description: as §1, §2

MALME-3M (Melanoma) = assay: NCI one dose, MALME-3M; conditions: 1.00E-5 Molar one dose
Description: as §1, §2

SNB-75 (CNS Cancer) = assay: NCI one dose, SNB-75; conditions: SNB-75, 1.00E-5 Molar one dose
Description: as §1, §2

RXF 393 (Renal Cancer) = assay: NCI one dose, RXF 393; conditions: RXF 393, 1.00E-5 Molar one dose
Description: as §1, §2

MCF7 (Breast Cancer) = assay: NCI one dose, MCF7; conditions: MCF7, 1.00E-5 Molar one dose
Description: as §1, §2

With `O=C(NCc1cccc(C(F)(F)F)c1)[C@@H]1CS[C@H]2c3ccccc3C(=O)N12` [4aD] the “Growth Percent” value (HCC-2998 (Colon Cancer)) was 121.37%, the “Growth Percent” value [1] was 93.97% and the “Growth Percent” value (OVCAR-4 (Ovarian Cancer)) was 105.79%. For the same compound, the “Growth Percent” value (U251 (CNS Cancer)) was 94.74%, the “Growth Percent” value (A498 (Renal Cancer)) was 103.16% and the “Growth Percent” value (HS 578T (Breast Cancer)) was 110.09%. The “Growth Percent” value (LOX IMVI (Melanoma)) was 100.26%, the “Growth Percent” value (DU-145 (Prostate Cancer)) was 110.52% and the “Growth Percent” value (CAKI-1 (Renal Cancer)) was 97.61%. The “Growth Percent” value [2] was 94.49%, the “Growth Percent” value (RPMI-8226 (Leukemia)) was 94.54% and the “Growth Percent” value (K-562 leukaemia cells) was 89.33%. For the same compound, the “Growth Percent” value (HCT-116 (Colon Cancer)) was 91.63%, the “Growth Percent” value (786-0 (Renal Cancer)) was 88.74% and the “Growth Percent” value [3] was 100.33%. The “Growth Percent” value (SK-MEL-2 (Melanoma)) was 94.10%, the “Growth Percent” value (CCRF-CEM (Leukemia)) was 99.20% and the “Growth Percent” value (SF-268 (CNS Cancer)) was 96.16%. For the same compound, the “Growth Percent” value [4] was 92.62%, the “Growth Percent” value (IGROV1 (Ovarian Cancer)) was 95.38% and the “Growth Percent” value (PC-3 (Prostate Cancer)) was 86.39%. The “Growth Percent” value [5] was 103.29%, the “Growth Percent” value [6] was 79.43% and the “Growth Percent” value (M14 (Melanoma)) was 97.50%. For the same compound, the “Growth Percent” value (MDA-MB-435 (Melanoma)) was 107.10%, the “Growth Percent” value (KM12 (Colon Cancer)) was 98.82% and the “Growth Percent” value (SF-295 (CNS Cancer)) was 95.03%. The “Growth Percent” value (UO-31 renal cancer cells) was 78.58%, the “Growth Percent” value (SW-620 (Colon Cancer)) was 107.41% and the “Growth Percent” value (OVCAR-8 (Ovarian Cancer)) was 94.59%. For the same compound, the “Growth Percent” value (SK-MEL-28 (Melanoma)) was 108.89%, the “Growth Percent” value [7] was 97.44% and the “Growth Percent” value (MALME-3M (Melanoma)) was 106.15%. For the same compound, the “Growth Percent” value (SNB-75 (CNS Cancer)) was 75.92%, the “Growth Percent” value (RXF 393 (Renal Cancer)) was 114.41% and the “Growth Percent” value (MCF7 (Breast Cancer)) was 91.11%.
In the case of `O=C(NCc1ccc(Cl)cc1Cl)[C@@H]1CS[C@H]2c3ccccc3C(=O)N12` [4aH], the “Growth Percent” value (HCC-2998 (Colon Cancer)) is reported as 102.84%, the “Growth Percent” value [1] is reported as 91.63% and the “Growth Percent” value (OVCAR-4 (Ovarian Cancer)) is reported as 106.54%. For the same compound, the “Growth Percent” value (U251 (CNS Cancer)) was 95.21%, the “Growth Percent” value (A498 (Renal Cancer)) was 101.60% and the “Growth Percent” value (HS 578T (Breast Cancer)) was 113.78%. The “Growth Percent” value (LOX IMVI (Melanoma)) was 100.51%, the “Growth Percent” value (DU-145 (Prostate Cancer)) was 109.93% and the “Growth Percent” value (CAKI-1 (Renal Cancer)) was 101.46%. For the same compound, the “Growth Percent” value [2] was 97.39%, the “Growth Percent” value (RPMI-8226 (Leukemia)) was 80.68% and the “Growth Percent” value (K-562 leukaemia cells) was 91.56%. The “Growth Percent” value (HCT-116 (Colon Cancer)) was 83.47%, the “Growth Percent” value (786-0 (Renal Cancer)) was 89.83% and the “Growth Percent” value [3] was 99.59%. For the same compound, the “Growth Percent” value (SK-MEL-2 (Melanoma)) was 99.61%, the “Growth Percent” value (CCRF-CEM (Leukemia)) was 92.66% and the “Growth Percent” value (SF-268 (CNS Cancer)) was 98.11%. For the same compound, the “Growth Percent” value [4] was 92.00%, the “Growth Percent” value (IGROV1 (Ovarian Cancer)) was 101.47% and the “Growth Percent” value (PC-3 (Prostate Cancer)) was 81.35%. For the same compound, the “Growth Percent” value [5] was 100.24%, the “Growth Percent” value [6] was 75.56% and the “Growth Percent” value (M14 (Melanoma)) was 99.48%. The “Growth Percent” value (MDA-MB-435 (Melanoma)) was 100.39%, the “Growth Percent” value (KM12 (Colon Cancer)) was 99.99% and the “Growth Percent” value (SF-295 (CNS Cancer)) was 95.60%. The “Growth Percent” value (UO-31 renal cancer cells) was 83.58%, the “Growth Percent” value (SW-620 (Colon Cancer)) was 105.59% and the “Growth Percent” value (OVCAR-8 (Ovarian Cancer)) was 97.57%. For the same compound, the “Growth Percent” value (SK-MEL-28 (Melanoma)) was 103.04%, the “Growth Percent” value [7] was 110.76% and the “Growth Percent” value (MALME-3M (Melanoma)) was 107.73%. For the same compound, the “Growth Percent” value (SNB-75 (CNS Cancer)) was 89.63%, the “Growth Percent” value (RXF 393 (Renal Cancer)) was 105.25% and the “Growth Percent” value (MCF7 (Breast Cancer)) was 94.95%.
With `O=C(NCc1ccccc1C(F)(F)F)[C@@H]1CS[C@H]2c3ccccc3C(=O)N12` [4aC] the “Growth Percent” value (HCC-2998 (Colon Cancer)) was 111.38%, the “Growth Percent” value [1] was 103.27% and the “Growth Percent” value (OVCAR-4 (Ovarian Cancer)) was 105.74%. For the same compound, the “Growth Percent” value (U251 (CNS Cancer)) was 91.06%, the “Growth Percent” value (A498 (Renal Cancer)) was 98.14% and the “Growth Percent” value (HS 578T (Breast Cancer)) was 104.53%. The “Growth Percent” value (LOX IMVI (Melanoma)) was 102.58%, the “Growth Percent” value (DU-145 (Prostate Cancer)) was 107.34% and the “Growth Percent” value (CAKI-1 (Renal Cancer)) was 97.48%. For the same compound, the “Growth Percent” value [2] was 90.42%, the “Growth Percent” value (RPMI-8226 (Leukemia)) was 87.69% and the “Growth Percent” value (K-562 leukaemia cells) was 94.12%. For the same compound, the “Growth Percent” value (HCT-116 (Colon Cancer)) was 87.63%, the “Growth Percent” value (786-0 (Renal Cancer)) was 86.33% and the “Growth Percent” value [3] was 105.15%. The “Growth Percent” value (SK-MEL-2 (Melanoma)) was 99.87%, the “Growth Percent” value (CCRF-CEM (Leukemia)) was 93.25% and the “Growth Percent” value (SF-268 (CNS Cancer)) was 93.86%. The “Growth Percent” value [4] was 99.79%, the “Growth Percent” value (IGROV1 (Ovarian Cancer)) was 98.93% and the “Growth Percent” value (PC-3 (Prostate Cancer)) was 85.22%. The “Growth Percent” value [5] was 99.35%, the “Growth Percent” value [6] was 77.56% and the “Growth Percent” value (M14 (Melanoma)) was 95.62%. For the same compound, the “Growth Percent” value (MDA-MB-435 (Melanoma)) was 102.87%, the “Growth Percent” value (KM12 (Colon Cancer)) was 102.90% and the “Growth Percent” value (SF-295 (CNS Cancer)) was 94.85%. For the same compound, the “Growth Percent” value (UO-31 renal cancer cells) was 74.84%, the “Growth Percent” value (SW-620 (Colon Cancer)) was 104.34% and the “Growth Percent” value (OVCAR-8 (Ovarian Cancer)) was 94.34%. For the same compound, the “Growth Percent” value (SK-MEL-28 (Melanoma)) was 99.12%, the “Growth Percent” value [7] was 91.35% and the “Growth Percent” value (MALME-3M (Melanoma)) was 108.73%. The “Growth Percent” value (SNB-75 (CNS Cancer)) was 85.21%, the “Growth Percent” value (RXF 393 (Renal Cancer)) was 115.46% and the “Growth Percent” value (MCF7 (Breast Cancer)) was 90.35%.
